Earlier results as cited in US4960596A (Ethypharm, priority 1987, dated 1990).
Where a name gives a salt, the structure may show the parent alone.

How the values were obtained:
[1] = literature
[2] = tested on: sodium-potassium pump; conditions: smooth muscle cells and other types of cell
[3] = tested on: heart muscle
[4] = tested on: smooth muscle
[5] = tested on: special channels to be found in the membranes of a variety of cells (calcium)

In the case of `COc1ccc(C2Sc3ccccc3N(CCN(C)C)C(=O)C2OC(C)=O)cc1` (stereo not drawn) [Diltiazem, Diltiazem hydrochloride], the half life [1] is given as “four hours to seven hours”, the intra-cellular sodium [2] is given as “reduces intra-cellular sodium by stimulating the sodium-potassium pump” and the “heart pacemaker activity and auriculo-ventricular node conduction” value [3] is given as “depressive effective on heart pacemaker activity and on auriculo-ventricular node conduction resulting in a negative chronotropic effect”. For the same compound, the inotropic effect [3] was “weak negative inotropic effect on the heart muscle”, the “effect on smooth muscle” value [4] was “vasodilatation of smooth muscle” and the calcium inflow [5] was “inhibit the inflow of calcium”.
